Results as given in patent US11730712B2, “Functionalized long-chain hydrocarbon mono- and di-carboxylic acids and derivatives thereof, and their use for the prevention or treatment of disease” (ESPERVITA THERAPEUTICS, INC., priority 2021, dated 2023).
pIC50: −log10 of the molar value.

Legend:
[1] = tested on: Hep3B human hepatocarcinoma cells; assay: Colony formation assay (clonogenic survival, 7 days); assay type: cell-based; settings: 168 h, read-out: Hep3B (IC50), anti-clonogenic activity
Protocol: (§1) Colony formation assay. Hep3B and Hepa1-6 cells were seeded in 12-well plates at a cell density of 1000 and 500 cells/well, respectively. On day 2, media in each well was aspirated and replaced with 1000 μl of fresh complete media and cells were treated with or without the respective drugs in an increasing concentration followed by the incubation of the cells for 7 days in an incubator.
(§2) On day 9, the media in each well was aspirated and cells were fixed with 10% formalin (500 μl) for 10 minutes at room temperature. Formalin was aspirated and the plates were washed with 1×PBS and stained with crystal violet for another 10 minutes. After 10 minutes of staining, crystal violet was […] the cells, rinsed with tap water for three times and the plates were dried overnight. Next day, colonies (>50 cells) were counted and analyzed.
(§3) Statistical tests. Results were indicated as mean±standard deviation (SD). All line graphs were prepared using Graph Pad Prism 8 software. Proliferation and clonogenics IC50 values were calculated using a non-linear regression model in Graph pad Prism 8.

[2] = tested on: Hepa1-6 murine hepatoma cells; assay: as above; assay type: cell-based; settings: Mus musculus, Hepa1-6, 168 h, read-out: Hepa1-6 (IC50), anti-clonogenic activity
Protocol: as §1, §2, §3

[3] = tested on: C57BL/6 mice with UUO; assay: Murine unilateral ureter obstruction (UUO) renal fibrosis model; assay type: in vivo, mouse; settings: 100 mg/kg daily oral gavage, 9 days after UUO
Protocol: Animal studies were carried out in accordance with the principles of laboratory animal care of the Canadian Council on Animal Care guidelines. Male C57BL/6 mice were obtained from Charles Rivers Laboratories. FIG. 13A summarizes the timeline for this experiment. UUO model was created as follows: male C57BL6J mice (8 weeks old from Charles River Laboratories) were anesthetized with 4% isofluorane and an anesthetic plane was maintained throughout surgery at 1.5-2% isofluorane with 1 L/min oxygen. A 0.5 cm incision was made longitudinally on the left flank. The left ureter and lower pole of the kidney was exposed, and the ureter was ligated with a […] in close proximity to the renal pelvis. A sham operation control group was created by surgical exposure of the left ureter and lower pole of the kidney followed by closure of the incision. Subcutaneous fluids were given (1.5 ml 0.9% NaCl) and the incision was closed with 4′0 silk sutures followed by staples for the skin. Starting the day of model creation, the animals were given a daily dose of either vehicle alone (sham surgery and UUO control, 1.5% CMC and 0.2% Tween-20) or vehicle containing Compound I-32 or Compound I-1 (at 100 mg/kg) by oral gavage for 9 days following surgery. At the end of the treatment period mice were anesthetized prior to euthanasia by bilateral thoraco-abdominal incision. Blood was collected by cardiac puncture, followed by kidney perfusion with cold saline through left ventricular cannulation. The left kidney was removed, a sample taken and fixed in formalin for histological analysis. Trichrome staining was done on formalin-fixed sections (4 μm) following deparaffinization according to manufacturers instructions (Sigma HT15-1KT). Images were quantified by measuring the percentage of positive area using Image J on micrographs captured at ×200 magnification using the BX41 Olympus microscope. Statistical analysis was performed using GraphPad Prism 8. A one-way ANOVA was used to determine significance. A p-value of less than or equal to 0.05 was used as the criterion of significance. This route was selected because it simulates oral administration to mammalian, including human, subjects and ensures that the correct dose of compound is ingested by each animal.
Immunohistochemistry. Formalin-fixed kidneys were embedded in paraffin, then sectioned at 4 μm. After deparaffinization, they were stained with Masson's trichrome to assess collagen content (Sigma Aldrich, catalogue no. HT15-1T), picrosirius red (PSR) to more specifically assess pathogenic collagens I and III (Polysciences, Inc., catalogue no. 24901-500), αSMA as a marker of activated, profibrotic fibroblasts (PIERCE, catalogue no. MA1-06110; 30 min steaming for antigen retrieval, antibody used at 1:5000 for 2 h at room temperature), CD3 to identify T-lymphocytes (Dako, catalogue no. A0452; 30 min steaming for antigen retrieval, antibody used at 1:500 overnight at 4° C.) and F4/80 to identify, macrophages (done by the McMaster Histology Facility). Slides were counterstained with hematoxylin, dehydrated twice with 90% ethanol, cleared twice with xylene, coverslipped with mounting media, and then left to dry overnight before imaging. Masson's trichrome, αSMA, CD3 and F4/80 were imaged under transmitted light and quantified using ImageJ. The Olympus IX81 fluorescence microscope driven by Metamorph was used to image and quantify PSR staining. Images were quantified by measuring the percentage of positive area. All micrographs were captured at ×20 magnification.

| Structure (SMILES) | pIC50 [1] | pIC50 [2] | T-lymphocyte infiltration (CD3 stain) [3] | UUO-induced increases in Trichrome and αSMA (renal fibrosis) [3] | macrophage infiltration (F4/80 stain) [3] |
| --- | --- | --- | --- | --- | --- |
| CC(C)(CCCCc1cccc(CCCCC(C)(C)C(=O)O)c1)C(=O)O [Compound I-32, 6-[3-(5-carboxy-5-methylhexyl)-phenyl]-2,2-dimethylhexanoic acid] | 4.39 | 4.23 | no effect on T-lymphocytes | trend to reduction | significantly reduced macrophage infiltration |
| CC(C)(CCCCc1ccc(CCCCC(C)(C)C(=O)O)cc1)C(=O)O [Compound I-1, 6-[4-(5-carboxy-5-methylhexyl)-phenyl]-2,2-dimethylhexanoic acid] | 4.30 | 4.17 | no effect on T-lymphocytes | decreased | significantly reduced macrophage infiltration |
